The NIST ThermoML archive (doi:10.1016/j.jct.2012.04.029)

Conditions: Liquid, Ebulliometric method (Recirculating still)

COCCO [2-methoxyethan-1-ol]
Conditions	vapor or sublimation pressure [kPa]
346.4 K	15
356.9 K	23.5
364.7 K	32
376 K	49
380.6 K	57.5
384.5 K	66
388.1 K	74.5
391.3 K	83
394.4 K	91.5
397.2 K	100
400.1 K	108.5
402.6 K	117
404.9 K	125.5
407 K	134
409.1 K	142.5
411.1 K	151
412.9 K	159.5
414.7 K	168
416.6 K	176.5

COCC(C)O (stereo not drawn) [1-methoxy-2-propanol]
Conditions	vapor or sublimation pressure [kPa]
342.3 K	15
352.5 K	23.5
360.1 K	32
367.4 K	42.1
371.6 K	49.1
376 K	57.6
380 K	66.1
383.5 K	74.6
386.9 K	83.3
390.1 K	92.6
392.8 K	99.9
397.9 K	116.9
400 K	125.5
402.2 K	134
404.3 K	142.5
406.3 K	151
408.2 K	159.5
410 K	168
411.8 K	176.5
